#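 Test compounds were applied to cells in 96-well plates for 48 hours at 5 doses. Definition used: TGI = concentration required for complete inhibition of growth.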
# What was measured:
# Experiment in all cases: NCI tumour cell line growth inhibition, 48 h
# HCC-2998 colon = tested on: HCC-2998 colon
# OVCAR-4 ovarian = tested on: OVCAR-4 ovarian
# SF-295 CNS = tested on: SF-295 CNS
# SK-MEL-5 melanoma = tested on: SK-MEL-5 melanoma
# SK-OV-3 ovarian = tested on: SK-OV-3 ovarian
# SNB-19 CNS = tested on: SNB-19 CNS
# TK-10 renal = tested on: TK-10 renal
# UACC-257 melanoma = tested on: UACC-257 melanoma
# UACC-62 melanoma = tested on: UACC-62 melanoma
# HOP-92 NSCLC = tested on: HOP-92 NSCLC
Structure (SMILES),TGI (HCC-2998 colon) [µM],TGI (OVCAR-4 ovarian) [µM],TGI (SF-295 CNS) [µM],TGI (SK-MEL-5 melanoma) [µM],TGI (SK-OV-3 ovarian) [µM],TGI (SNB-19 CNS) [µM],TGI (TK-10 renal) [µM],TGI (UACC-257 melanoma) [µM],TGI (UACC-62 melanoma) [µM],TGI (HOP-92 NSCLC) [µM]
CS(=O)(=O)c1nc(-c2cc3c(c(S(C)(=O)=O)n2)CCC3)cc2c1CCC2,> 100,> 100,> 100,> 100,> 100,> 100,> 100,> 100,> 100,
O=C(/C=C/c1ccccc1O)CC(=O)/C=C/c1ccccc1O,15.8,> 88.1,> 31.6,14.6,,22.9,> 100,18.7,7.58,53.7
Nc1nc(-c2ccccc2)cc(-c2ccc(F)cc2)c1-c1ccc(Cl)cc1,> 100,> 100,> 100,> 100,> 100,> 100,> 100,> 100,> 100,
CCCCC(=O)Nc1ccc2cc(C(=O)OC)c(=O)[nH]c2n1,> 100,> 100,> 100,> 100,> 100,> 100,> 100,> 100,,> 100
NC(=O)c1ccc(N)nc1,> 400,> 400,> 400,,> 400,> 400,> 400,> 400,> 400,> 400
C=CCn1c(-c2ccc(N=NNc3ccc(-c4n[nH]c(=S)n4CC=C)cc3)cc2)n[nH]c1=S,,6.35,15.7,3.79,25.3,> 100,> 100,> 100,,39.1
Cc1cc(S(=O)(=O)Nc2nc(N)n(-c3ccccc3)n2)c(S)cc1Cl,> 100,> 100,,> 100,> 100,> 100,> 100,> 100,> 100,
C/C(=N\NC(=S)N/N=C(\C)c1ccccn1)c1ccccn1,,> 100,> 100,> 100,> 100,> 100,> 100,> 100,15,> 100
CCOC(=O)C(NC(=O)Nc1ccccc1)(Nc1cccc(Cl)c1)C(F)(F)F (stereo unspecified),> 100,,,> 100,> 100,> 100,> 100,> 100,> 100,94.6
Clc1ccc2nc3c(c(-c4ccccc4)nn3-c3ccccc3)c(-c3ccccc3)c2c1,> 100,> 100,> 100,> 100,> 100,> 100,> 100,,> 100,> 100
COc1cc(CNc2nc3cc(C(F)(F)F)ccc3nc2C(=O)O)cc(OC)c1OC,> 100,,43.3,,> 100,56.7,39.7,63.6,28.9,
Cc1cc2nc(N)n[n+]([O-])c2cc1C,> 100,,> 100,> 100,> 100,> 100,> 100,> 100,> 100,
COC12OC3(C4OC41)C(C(=O)O[C@H]3CO[Si](C)(C)C(C)(C)C)C2S(=O)(=O)c1ccccc1 (stereo partly specified),> 100,,> 100,,> 30.4,,> 100,> 12.6,> 7.52,> 100
C=C1CN(C(=O)c2cc3cc(OC)c(OC)c(OC)c3[nH]2)c2cc([N+](=O)[O-])ccc21,> 100,> 100,,> 100,> 100,> 100,> 100,> 100,> 100,> 100
N.N.NCCCCN.O=C([O-])CCl.O=C([O-])CCl.O=C([O-])CCl.O=C([O-])CCl.[Pt+4].[Pt+4],> 50,> 50,> 50,> 50,> 50,,> 50,> 50,> 50,> 50
COC(=O)[C@@]12CC3CN(Cc4c1[nH]c1ccccc41)C2CC3=O,> 100,> 100,> 100,,> 100,> 100,> 100,> 100,> 100,> 100
CC12CCC3=C(CSC4=C3CSc3ccccc34)C1=CCCC2=O (stereo unspecified),> 100,55.6,,53,,> 100,> 100,,,

# From PubChem BioAssay (NCI)
